Assay results taken from patent US11453642B2, “Oxygenated amino- or ammonium-containing sulfonic acid, phosphonic acid and carboxylic acid derivatives and their medical use” (GRI BIO, INC., priority 2011, dated 2022).

Key:
[1] = Pharmacokinetic study after a single oral administration to mice; assay type: in vivo
Description: The aim of the study was to evaluate pharmacokinetic (PK) properties of five different batches including anhydrates and monohydrates of the crystal form A of compound 1a (cf. Table 1 in Example 5) after a single oral administration to mice. Three of the forms were anhydrous and two were monohydrates.
Compound 1a was administered as a suspension of 0.5% methyl cellulose (Sigma-Aldrich) in water at a dose of 100 mg/kg (10 ml/kg) by oral gavage to non-fasted female Balb/c mice (n=3).
Blood was collected by decapitation at 0.5, 1, 2, 4, 8, 12, 24, and 48 h after administration. Blood plasma was isolated by centrifugation at 4° C. (20,000×g for 10 min), transferred to microtubes containing lithium-heparin and frozen in aliquots at −70° C. until assayed by mass-spectrometry. Mean plasma concentration-time profiles (semi-logarithmic) of the five polymorphic crystal forms of compound 1a are shown in FIG. 6.
For PK evaluation, summary statistics and plotting of concentration/time curves, all values below the lower limit of quantification (LLOQ) were set to zero.

[2] = test system: collagen type II-induced arthritis (CIA)
[3] = test system: local lymph node reaction; assay: Local lymph node weight and cell count after TDI challenge; assay type: in vivo, mice; settings: topical 1a 2% or 6%, diflorasone 0.1% and 0.5%
Description: Directly after sacrifice, the ear draining lymph node (Ln. auricularis) was prepared and excised. Organ weight was determined by means of an analytical balance (Kern, Balingen, Germany). Single cell suspensions were prepared by means of a glass potter (VWR, Darmstadt, Germany) and cells were counted with a hemocytometer (Neubauer, VWR, Germany).
One of the most undesirable side-effects of corticosteroid administration is immunosuppression, which leads to the inability to effectively address parasitic infection, wound healing and tumor growth. In the current study, the local lymph node reaction after TDI challenge (lymph node weight and cell number) was determined to assess the response of immune organs.

RBL-2H3 cells = assay: Inhibition of mast cell degranulation (β-hexosaminidase release); assay type: cell-based; settings: Rattus norvegicus, IgE-sensitized RBL-2H3 cells, 1 h with compound, antigen (DNP-HSA) 15 min
From the text: Mast cells are key effector cells involved in allergic and inflammatory diseases, and the Rat Basophilic Leukemia clone 2H3 (RBL-2H3) cell line is a commonly used model of allergen dependent immune modulator release (degranulation) in mast cells. On their surface, they express the high affinity receptor for IgE (FcεRI). Upon binding of antigen-specific IgE to the receptor, cells become sensitized to the IgE specific antigen (allergen). When IgE-sensitized cells then encounter multivalent antigen, the antigen clusters IgE-FcεRI complexes and initiates a signal transduction cascade that leads to degranulation, that is, the release of inflammatory mediators, such as cytokines, eicosanoids, histamine and enzymes. The assay can be used as a screening method to identify immune-modulating compounds, in particular compounds useful in the medical management of allergic and inflammatory diseases and asthma, β-hexosaminidase was previously shown to be released with the same kinetics as histamine (Schwartz et al., J Immunology; 123:1445-1450 (1979)), thus offering a simple means to monitor degranulation. […]
MUG substrate solution, 100 μl, were added to supernatant and lysate samples and plates were incubated 30 min at 37° C. […] Fluorescence was measured at 365 nm excitation and 440 nm emission wavelengths. […]

| SMILES | tmax ([1]; female, Balb/c, mouse, plasma, po, 100 mg/kg, female Balb/c mice, single oral 100 mg/kg in 0.5% methylcellulose, plasma, read-out: tmax) | overt toxicity ([1]; single oral 100 mg/kg, regardless of the polymorphic crystal form) | spleen and thymus weights ([2]; mouse, in vivo) | toxic effects ([2]; mouse, in vivo) | cumulative arthritis score and paw thickness ([2]; prophylactic regimen day 0-47, 25 and 100 mg/kg orally twice daily, vs vehicle) | arthritis score and cumulative arthritis score ([2]; therapeutic regimen, 100 mg/kg orally twice daily for 20 days, day 11 to 13 and day 21, vs vehicle) | local lymph node reaction (lymph node weight and cell number) [3] | IC50 (RBL-2H3 cells) |
| --- | --- | --- | --- | --- | --- | --- | --- | --- |
| CCCCCCCCCCCCCCCCN(C)CC(O)CS(=O)(=O)O (centres unmarked) [Compound 1a, 2-hydroxy-3-(N-methylhexadecylammonio)propane-sulfonate] | 1 to 2 h | No overt toxicity | did not reduce | did not show any toxic effects | reduced | significantly reduced | did not have any impact | – |
| CCCCCCCCCCCCN(C)CC(O)CS(=O)(=O)O (centres unmarked) [Compound 1c, 2-hydroxy-3-(N-methyldodecylammonio)propanesulfonate] | – | – | – | – | – | – | – | 4.1 µM |
